Target: cAMP and cAMP-inhibited cGMP 3',5'-cyclic phosphodiesterase 10A (Homo sapiens, UniProt Q9Y233)
Assay: Fluorescence Polarization Assay: In a typical experiment the PDE10 inhibitory activity of the compounds of the present invention was determined in accordance with the following experimental method. PDE10A2 was amplified from human fetal brain cDNA (Clontech, Mountain View, Calif.) using a forward primer corresponding to nucleotides 56-77 of human PDE10A2 (Accession No. AF127480, Genbank Identifier 4894716), containing a Kozak consensus sequence, and a reverse primer corresponding to nucleotides 2406-2413 of human PDE10A2 (Accession No. AF127480, Genbank Identifier 4894716). Amplification with Easy-A polymerase (Stratagene, La Jolla, Calif.) was 95° C. for 2 minutes followed by thirty three cycles of 95° C. for 40 seconds, 55° C. for 30 seconds, and 72° C. for 2 minutes 48 seconds. Final extension was 72° C. for 7 minutes. The PCR product was TA cloned into pcDNA3.2-TOPO (Invitrogen, Carlsbad, Calif.) according to standard protocol. AD293 cells with 70-80% confluency were transiently transfected with human PDE10A2.

Sequence of cAMP and cAMP-inhibited cGMP 3',5'-cyclic phosphodiesterase 10A (Q9Y233 whole entry): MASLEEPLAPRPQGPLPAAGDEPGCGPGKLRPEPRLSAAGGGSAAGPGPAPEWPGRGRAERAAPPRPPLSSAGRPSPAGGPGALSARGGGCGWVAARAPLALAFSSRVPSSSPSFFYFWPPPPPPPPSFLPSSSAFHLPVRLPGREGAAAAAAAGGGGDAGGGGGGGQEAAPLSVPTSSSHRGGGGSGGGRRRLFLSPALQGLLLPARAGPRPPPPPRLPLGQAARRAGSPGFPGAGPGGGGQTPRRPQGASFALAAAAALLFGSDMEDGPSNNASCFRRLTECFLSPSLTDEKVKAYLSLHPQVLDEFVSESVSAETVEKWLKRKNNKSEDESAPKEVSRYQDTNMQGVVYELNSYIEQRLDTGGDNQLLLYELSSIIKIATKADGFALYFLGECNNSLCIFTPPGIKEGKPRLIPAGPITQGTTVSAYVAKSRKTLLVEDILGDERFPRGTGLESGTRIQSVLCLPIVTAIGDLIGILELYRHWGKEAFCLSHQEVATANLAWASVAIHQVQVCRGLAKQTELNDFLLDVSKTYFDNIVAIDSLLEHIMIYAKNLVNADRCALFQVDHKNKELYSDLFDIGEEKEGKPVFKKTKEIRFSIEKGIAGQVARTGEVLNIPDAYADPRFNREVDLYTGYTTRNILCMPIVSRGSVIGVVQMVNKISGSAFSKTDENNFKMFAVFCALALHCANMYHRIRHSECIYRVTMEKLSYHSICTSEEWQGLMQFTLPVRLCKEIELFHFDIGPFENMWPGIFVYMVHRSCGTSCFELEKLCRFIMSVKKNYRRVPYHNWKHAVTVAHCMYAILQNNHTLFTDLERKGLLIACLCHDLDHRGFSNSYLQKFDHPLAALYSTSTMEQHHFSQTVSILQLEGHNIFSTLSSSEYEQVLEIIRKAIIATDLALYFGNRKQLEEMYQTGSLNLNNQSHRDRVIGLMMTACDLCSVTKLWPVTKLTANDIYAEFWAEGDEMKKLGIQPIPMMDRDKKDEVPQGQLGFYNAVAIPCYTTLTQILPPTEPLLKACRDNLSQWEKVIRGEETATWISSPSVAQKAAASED

Compound | Ki [nM]
Cc1nc(C2CC2c2nc3ccc(F)cc3[nH]2)cc(-n2nc(C)nc2C)n1 (configuration not stated) | 14.2
COc1ccc(COc2cc(-n3nc(C)nc3Cc3ccc(OC)c(OC)c3)nc(C)n2)nc1 | 3.3

— ChEMBL document CHEMBL3886390, “Triazolyl PDE10 inhibitors” (2015)
